Assay [1] has as its target T1, human leukocyte elastase (HLE) (Homo sapiens, UniProt P08246).
T1 construct: purchased Calbiochem Lot 702038
T1 sequence (P08246 30-267): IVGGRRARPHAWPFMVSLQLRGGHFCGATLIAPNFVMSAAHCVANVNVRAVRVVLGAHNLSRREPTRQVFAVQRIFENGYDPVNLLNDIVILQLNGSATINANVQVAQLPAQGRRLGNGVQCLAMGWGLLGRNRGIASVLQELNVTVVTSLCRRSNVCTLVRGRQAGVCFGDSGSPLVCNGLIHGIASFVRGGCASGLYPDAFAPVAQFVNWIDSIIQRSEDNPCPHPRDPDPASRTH
In words: Inhibition of HLE activity, kinetic parameters (Protocol B). The format is biochemical. To be noted: for Ki: steady state, read-out: "Potency" K1^ (apparent dissociation constant of the HLE-inhibitor complex at steady state, Ki^ss).
Description: Protocol B--Inhibition of HLE activity (Calbiochem, Lot 702038) was determined at 37° C., 0.027M pH 7.4 phosphate buffer, 1% DMSO, 1% MeCN, NaCl (I=15), by monitoring the release of 7-amino-4-methylcoumarin (fluorescence detection) from N-methoxysuccinyl-alanyl-prolyl-valyl-7-amido-4-methylcoumarin as substrate, according to the equations: [formula] wherein: [P], [I], [S]=product, inhibitor and substrate concentration
km =Michaelis constant for the enzyme-substrate pair (independently determined under the same experimental conditions).

In assay [2] the target is porcine pancreatic elastase, PPE (Sus scrofa, UniProt P00772). Put plainly: Inhibition of PPE activity (Protocol A). Type of assay: biochemical. To be noted: 30° C., 0.05M pH 7.4 phosphate buffer, 2.5% MeCN; 50% reduction of enzyme activity 6.4 minutes after zero time; read-out: PPE-inhibitory activity IC50 (converted). How it is done:
To illustrate this point, Table 1 reports the results of our preliminary screening test (carried out with porcine pancreatic elastase, PPE), wherein four representative compounds of the present invention (formula I) are compared with the corresponding 2-unsubstitued compounds of formula II (References A and B).
Protocol A--Inhibition of PPE activity was determined at 30° C., 0.05M pH 7.4 phosphate buffer, 2.5% MeCN, by monitoring the release of p-nitroaniline (410 nm, Carlo Erba Strumentazione Spectracomp spectrophotometer) from the substrate (N-t-Boc-alanyl-alanyl-prolyl-alanine-p-nitroanilide, 0.2 mM initial concentration).

[3] abbreviates: 37° C., 0.027M pH 7.4 phosphate buffer, 1% DMSO, 1% MeCN, read-out: "Efficacy" Kon (rate of formation of the HLE-inhibitor complex).
Where [4] appears, read: 37° C., 0.027M pH 7.4 phosphate buffer, 1% DMSO, 1% MeCN.

The structures appear in SMILES notation. Read-outs that look alike come from different tables or passages of the source.

porcine pancreatic elastase, PPE, sequence (P00772 27-266): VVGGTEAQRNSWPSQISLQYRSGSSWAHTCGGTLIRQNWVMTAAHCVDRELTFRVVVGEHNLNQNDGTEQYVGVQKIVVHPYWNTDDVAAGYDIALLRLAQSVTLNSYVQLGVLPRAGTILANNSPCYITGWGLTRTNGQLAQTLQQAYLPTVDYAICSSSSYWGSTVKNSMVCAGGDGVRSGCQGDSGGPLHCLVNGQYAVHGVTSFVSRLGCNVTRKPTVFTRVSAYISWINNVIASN

One may read the kon as a measure of how fast the partners come together. Regarding `CO[C@H]1C(=O)N2C(C(=O)N3CCCC3)=C(CSc3nc(=O)c(O)nn3C)CS(=O)(=O)[C@H]12` [Merck L-659,286, reference compound], the kon in assay [1] (pH 7.4, read-out: "Efficacy" Kon (rate of formation of the HLE-inhibitor complex)) worked out at 1500 M⁻¹ s⁻¹.

What is called IC50 is the concentration that inhibits the measured activity by half. `CC1=C(C(=O)C(C)(C)C)N2C(=O)[C@H](Cl)[C@H]2S(=O)(=O)C1` [Reference A, reference compound]: the IC50 in assay [2] was 6540 nM.

As for `CO[C@H]1C(=O)N2C(C(=O)C(C)(C)C)=C(C)CS(=O)(=O)[C@H]12` [Reference B, reference compound], in assay [2], the concentration for half-maximal inhibition (IC50) is 6640 nM.

In the case of `CC1=C(C(=O)OC(C)(C)C)N2C(=O)[C@H](Cl)[C@H]2S(=O)(=O)C1Sc1nc2ccccc2s1` (some centres unmarked) [Reference C, reference compound], the 50% inhibitory concentration (IC50) in assay [2] is 4110 nM.

With `COC(=O)C1=C(C)C(Sc2nnnn2C)S(=O)(=O)[C@@H]2[C@@H](OC)C(=O)N12` (some centres unmarked) [Reference D, reference compound], the 50% inhibitory concentration (IC50) in assay [2] was 12800 nM. In addition, the kon in assay [1] (setting [3]) worked out at 500 M⁻¹ s⁻¹. The Ki in assay [1] (setting [4]) stood at 38 nM.

With `CO[C@H]1C(=O)N2C(C(=O)C(C)(C)C)=C(C)C(Sc3nnnn3C)S(=O)(=O)[C@H]12` (stereo partly drawn) [n° 1, 4-tert-Butylcarbonyl-7α-methoxy-3-methyl-2-(1-methyl-1,2,3,4-tetrazol-5-yl)thio-3-cephem 1,1-dioxide], in assay [2], the IC50 is 96.3 nM. Also, the on-rate (kon) in assay [1] (setting [3]) was determined as 90000 M⁻¹ s⁻¹. In addition, the Ki in assay [1] (setting [4]) amounted to 8.3 nM.

As to `CC1=C(C(=O)C(C)(C)C)N2C(=O)[C@H](Cl)[C@H]2S(=O)(=O)C1Sc1nc(=O)c(OC(c2ccccc2)c2ccccc2)nn1C` (stereo partly drawn) [n° 4, 4-Tert-butylcarbonyl-7α-chloro-3-methyl-2-(2-methyl-5-oxo-6-benzhydryloxy-2,5-dihydro 1,2,4-triazin-3-yl-)thio-3-cephem 1,1-dioxide], the half-maximal inhibitory concentration (IC50) in assay [2] was 71.5 nM.

Consider `CC1=C(C(=O)C(C)(C)C)N2C(=O)[C@H](Cl)[C@H]2S(=O)(=O)C1Sc1nc(=O)c(O)nn1C` (stereo partly drawn) [n° 5, 4-tert-butylcarbonyl-7α-chloro-3-methyl-2-(2-methyl-5-oxo-6-hydroxy-2,3-dihydro-1,2,4-triazin-3-yl)-thio-3-cephem 1,1-dioxide], for which, in assay [2], the concentration for half-maximal inhibition (IC50) was 75.6 nM.

On to `CO[C@H]1C(=O)N2C(C(=O)C(C)(C)C)=C(C)C(Sc3nnnn3CCCC(=O)O)S(=O)(=O)[C@H]12` (stereo partly drawn) [n° 7, 4-tert-Butylcarbonyl-7α-methoxy-3-methyl-2-[1-(3-carboxy-1-propyl)-1,2,3,4-tetrazol-5-yl]thio-3-cephem 1,1-dioxide], for which, in assay [1] (setting [3]), the kon was determined as 11000 M⁻¹ s⁻¹. In addition, in assay [1] (setting [4]), the Ki was determined as 18 nM.

For `CO[C@H]1C(=O)N2C(C(=O)C(C)(C)C)=C(C)C(Sc3nc(=O)c(O)nn3C)S(=O)(=O)[C@H]12` (stereo partly drawn) [n° 9, 4-tert-Butylcarbonyl-7α-methoxy-3-methyl-2-(2-methyl-5-oxo-6-hydroxy-2,5-dihydro-1,2,4-triazin-3-yl)thio-3-cephem 1,1-dioxide], the half-maximal inhibitory concentration (IC50) in assay [2] is 65.4 nM. The kon in assay [1] (setting [3]) was 25000 M⁻¹ s⁻¹. Besides, the Ki in assay [1] (setting [4]) was 26 nM.

(Values after patent US5348952A, “β-lactam derivatives of the cephem sulphone type” (Farmitalia Carlo Erba S.R.L., priority 1989, dated 1994).)
